The record followed here is patent US20210139441A1 (priority 2017, published 2021).

For the data set, the system named is Crl:CD(SD) rats. Conditions: rat, in vivo.

As for `FC(F)(F)[C@@H]1O[C@@H]1C(F)(F)F` [(2R,3S)-2,3-bis(trifluoromethyl)oxirane, Cis-2,3-bis(trifluoromethyl)oxirane], the “activity level and breathing rate” value is reported as “decreased”; the bodyweight loss was 3 gram; the “clinical signs after exposure” value was “no abnormal clinical signs”; the “clinical signs of toxicity” value is “no clinical signs of toxicity”. Besides, the “startle response after exposure” value was “normal startle response”; the “startle response during the exposure” value is “normal startle responses”; the “state and response to sound stimulus” value was “prostrate and unresponsive to sound stimulus”. In addition, the “Fractional mortalities (number of deaths/number exposed)” value (both, Crl:CD(SD)) is on record as 0/4.
